In the supplement of paper PMC10307832 one finds relative viability data, which are given here for 1 cell line.

Common to all, as to assay: relative viability (nuclei count vs DMSO), 5 days (fraction); higher = more cells survive
Compound in experiment [1]: COc1cc(-c2nn([C@H]3CC[C@H](N4CCN(C(C)=O)CC4)CC3)c3ncnc(N)c23)ccc1NC(=O)c1cc2ccccc2n1C + O=C(CCCCCCC(=O)Nc1ccccc1)NO [Vorinostat] (partner 1 µM)
A digest of the protocol:
(§1)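 For relative viability, nuclei counts in treated wells were divided by those in vehicle wells. Lung cancer cell lines had been pin-tool dosed in 1536-well plates the day after seeding and cultured for 5 days, then fixed and stained in one step (final 0.05% Triton X-100, 1% formaldehyde, 1 ug/ml Hoechst) and imaged at 4×. Doses were one drug alone or a fixed anchor-drug dose plus five library-drug doses (not always all listed) in √10 steps, and values are duplicate-plate medians.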

Compound in experiment [2]: CO[C@@H]1[C@H](N(C)C(=O)c2ccccc2)C[C@H]2O[C@]1(C)n1c3ccccc3c3c4c(c5c6ccccc6n2c5c31)C(=O)NC4 [Midostaurin] + C[C@@H](Oc1cc(-c2cnn(C3CCNCC3)c2)cnc1N)c1c(Cl)ccc(F)c1Cl [Crizotinib] (partner 1 µM)
A digest of the protocol:
as §1

Compound in experiment [3]: CO[C@@H]1[C@H](N(C)C(=O)c2ccccc2)C[C@H]2O[C@]1(C)n1c3ccccc3c3c4c(c5c6ccccc6n2c5c31)C(=O)NC4 [Midostaurin] + Nc1nc2[nH]cc(CCc3ccc(C(=O)N[C@@H](CCC(=O)O)C(=O)O)cc3)c2c(=O)[nH]1 [Pemetrexed] (partner 0.2 µM)
A digest of the protocol: as §1

Compound in experiment [4]: COc1cc(-c2nn([C@H]3CC[C@H](N4CCN(C(C)=O)CC4)CC3)c3ncnc(N)c23)ccc1NC(=O)c1cc2ccccc2n1C + Cc1nc(NC(=O)N2CCC[C@H]2C(N)=O)sc1-c1ccnc(C(C)(C)C(F)(F)F)c1 [Alpelisib] (partner 2 µM)
A digest of the protocol:
as §1

Compound in experiment [5]: COc1cc(-c2nn([C@H]3CC[C@H](N4CCN(C(C)=O)CC4)CC3)c3ncnc(N)c23)ccc1NC(=O)c1cc2ccccc2n1C + CC(C)C[C@H](NC(=O)[C@H](Cc1ccccc1)NC(=O)c1cnccn1)B(O)O [Bortezomib] (partner 0.002 µM)
A digest of the protocol: as §1

For UMC-11, the relative viability was found to be 0.44 in experiment [1] (first compound 0.0128 µM); 0.38 in experiment [1] (first compound 0.04048 µM); 0.351 in experiment [1] (first compound 0.128 µM); 0.342 in experiment [1] (first compound 1.28 µM); 0.553 in experiment [2] (first compound 0.01 µM); 0.53 in experiment [2] (first compound 0.03162 µM). The relative viability in experiment [2] (first compound 0.1 µM) worked out at 0.447; in experiment [2] (first compound 0.3162 µM), 0.179; in experiment [3] (first compound 0.01 µM), 0.808; in experiment [3] (first compound 0.03162 µM) it was 0.753; in experiment [3] (first compound 0.1 µM), 0.65; in experiment [3] (first compound 0.3162 µM), 0.528. In addition, the relative viability amounted to 0.892 in experiment [4] (first compound 0.0128 µM); 0.956 in experiment [4] (first compound 0.04048 µM); 0.986 in experiment [4] (first compound 0.128 µM); 0.746 in experiment [4] (first compound 1.28 µM); 0.728 in experiment [5] (first compound 0.0128 µM); 0.687 in experiment [5] (first compound 0.04048 µM). For the same cell line, the values for the relative viability in experiment [5] (first compound 0.128 µM) and in experiment [5] (first compound 1.28 µM) were 0.668 and 0.655, respectively.
